Test results as given in US9156872B2, “2′-azido substituted nucleoside derivatives and methods of use thereof for the treatment of viral diseases” (priority 2011, dated 2015).
pEC50: −log10 of the molar value.

These molecules were tested on HCV replicon cells (assay: Cell-based HCV replicon assay (replicon RNA by Taqman real time PCR)). Settings: Hepatitis C virus, 72 h, read-out: 1b EC50.
For `CCCCOC(=O)[C@H](C)NP(=O)(OC[C@H]1O[C@@H](n2ccc(=O)[nH]c2=O)[C@](C)(N=[N+]=[N-])[C@@H]1O)Oc1ccc(F)cc1` (stereo partly drawn) [Compound 367], the pEC50 was 5.48.
For `COC(=O)[C@H](C)NP(=O)(OC[C@H]1O[C@@H](n2cnc3c(OC)nc(N)nc32)[C@](C)(N=[N+]=[N-])[C@@H]1O)Oc1ccc(Cl)cc1` (single isomer, unassigned) [Compound 258], the pEC50 was 6.10.
`CCCCOC(=O)[C@H](C)NP(=O)(OC[C@H]1O[C@@H](n2cnc3c(OCC)nc(N)nc32)[C@](C)(N=[N+]=[N-])[C@@H]1O)Oc1cccc2ccccc12` (stereo partly drawn) [Compound 12] showed a pEC50 of 5.89.
Work on `CC(=O)CCc1ccc(OP(=O)(N[C@@H](C)C(=O)OC(C)C)OC[C@H]2O[C@@H](n3ccc(=O)[nH]c3=O)[C@](C)(N=[N+]=[N-])[C@@H]2O)cc1` (stereo partly drawn) [Compound 178] yielded a pEC50 of 5.52.
For `CCOc1nc(N)nc2c1ncn2[C@@H]1O[C@H](COP(=O)(N[C@@H](C)C(=O)OC)Oc2ccccc2)[C@@H](O)[C@@]1(C)N=[N+]=[N-]` (stereo partly drawn) [Compound 9], the pEC50 was 6.10.
`CC(C)OC(=O)[C@H](C)NP(=O)(OC[C@H]1O[C@@H](n2ccc(=O)[nH]c2=O)[C@](C)(N=[N+]=[N-])[C@@H]1O)Oc1ccccc1` (single isomer, unassigned) [Compound 157] showed a pEC50 of 4.31.
`COC(=O)[C@H](C)NP(=O)(OC[C@H]1O[C@@H](n2ccc(N)nc2=O)[C@](C)(N=[N+]=[N-])[C@@H]1O)Oc1ccccc1Cl` (stereo partly drawn) [Compound 93] was tested, and the pEC50 was 4.92.
`C[C@@H](NP(=O)(OC[C@H]1O[C@@H](n2ccc(=O)[nH]c2=O)[C@](C)(N=[N+]=[N-])[C@@H]1O)Oc1ccccc1)C(=O)OCc1ccccc1` (stereo partly drawn) [Compound 45] showed a pEC50 of 5.25.
With `CCCCOC(=O)[C@H](C)NP(=O)(OC[C@H]1O[C@@H](n2ccc(=O)[nH]c2=O)[C@](C)(N=[N+]=[N-])[C@@H]1O)Oc1ccccc1Cl` (stereo partly drawn) [Compound 377] the pEC50 was 5.17.
Molecule `CCOc1nc(N)nc2c1ncn2[C@@H]1O[C@H](COP(=O)(N[C@@H](C)C(=O)OC)Oc2ccc(F)cc2)[C@@H](O)[C@@]1(C)N=[N+]=[N-]` (stereo partly drawn) [Compound 35] has a pEC50 of 5.80.

Same assay, conditions: read-out: 1b EC50
With `CCOc1nc(N)nc2c1ncn2[C@@H]1O[C@H](COP(=O)(N[C@@H](C)C(=O)OCC(C)(C)C)Oc2ccccc2)[C@@H](O)[C@@]1(C)N=[N+]=[N-]` (single isomer, unassigned) [Compound 160] the pEC50 was 5.17.
With `COc1nc(N)nc2c1ncn2[C@@H]1O[C@H](COP(=O)(N[C@@H](C)C(=O)OCC(C)(C)C)Oc2ccccc2)C(O)[C@@]1(C)N=[N+]=[N-]` (single isomer, unassigned) [Compound 291] the pEC50 was 5.62.
For `COC(=O)[C@H](C)NP(=O)(OC[C@H]1O[C@@H](n2cnc3c(OC)nc(N)nc32)[C@](C)(N=[N+]=[N-])[C@@H]1O)Oc1ccc(Cl)cc1` (single isomer, unassigned) [Compound 259], the pEC50 was 6.22.
`COC(=O)c1ccccc1OP(=O)(N[C@@H](C)C(=O)OC)OC[C@H]1O[C@@H](n2ccc(=O)[nH]c2=O)[C@](C)(N=[N+]=[N-])[C@@H]1O` (single isomer, unassigned) [Compound 227] was tested, and the pEC50 was 5.51.
`CC(C)OC(=O)[C@H](C)NP(=O)(OC[C@H]1O[C@@H](n2ccc(=O)[nH]c2=O)[C@](C)(N=[N+]=[N-])[C@@H]1O)Oc1ccc2c(c1)OCO2` (stereo partly drawn) [Compound 234] showed a pEC50 of 4.60.
Molecule `CCOC(=O)[C@H](C)NP(=O)(OC[C@H]1O[C@@H](n2cnc3c(OCC)nc(N)nc32)[C@](C)(N=[N+]=[N-])[C@@H]1O)Oc1ccccc1` (stereo partly drawn) [Compound 558] has a pEC50 of 6.00.
For `CCOC(=O)[C@H](C)NP(=O)(OC[C@H]1O[C@@H](n2ccc(=O)[nH]c2=O)[C@](C)(N=[N+]=[N-])[C@@H]1O)Oc1ccccc1` (single isomer, unassigned) [Compound 152], the pEC50 was 6.30.
In the case of `CCOc1nc(N)nc2c1ncn2[C@@H]1O[C@H](COP(=O)(N[C@@H](C)C(=O)OC(C)C)Oc2ccc(F)cc2)[C@@H](O)[C@@]1(C)N=[N+]=[N-]` (single isomer, unassigned) [Compound 364], the pEC50 was 5.19.
